Measured values from US20230104477A1, “USE OF DEHYDROASCORBIC ACID AGAINST NEMATODE INFECTION IN PLANTS” (Universiteit Gent, priority 2019, published 2023).

Experiments:
[1] = system: Turnip mosaic virus; conditions: applied to Brassica rapa plants (Fujiwara et al., 2013); cited from earlier work
[2] = system: M. graminicola; test: Infection experiment with JA/ET mutant and biosynthesis inhibitors, foliar spray; type: in vivo, Meloidogyne graminicola; conditions: 12 days after inoculation
Description: (§1) M. graminicola originally isolated in the Philippines (Batangas) was cultured on susceptible rice plants. Second stage juveniles (J2s) were extracted using a sieve/tray extraction method and inoculation was done as described in Nahar et al., (2011). For susceptibility assays, at least two independent experiments were carried out, each time including eight plants per treatment. Twelve days after inoculation (dai), roots were stained using acid fuchsine (Nahar et al., 2011) to count galls and number of nematodes in the roots.
(§2) Reduced Ascorbic acid (AA, 20 mM), dehydroascorbic acid (DHA, 20 mM), ascorbate oxidase (AO, 20 U/ml), methyl jasmonate (MeJA, 100 μM), aminooxyacetic acid (AoA, 12.5 mM), diethyldithiocarbamic acid (DIECA, 100 μM) and ethephon (100 μM) were purchased from Sigma and dissolved in water (except MeJA that was first dissolved in a drop of ETOH) to attain the indicated concentration.
(§3) For foliar application, all chemicals were dissolved in water and 0.02% (v/v) of Tween20 as a surfactant was added prior to spraying on aerial portions of the rice plants. Control plants were sprayed with distilled water containing 0.02% Tween20. Eight plants per treatment were sprayed until run-off with 6.5 mL of solution (at 24 h prior to nematode inoculation, in cases where infected plants were used). The substrate was covered to avoid direct contact with the roots and/or nematodes.

[3] = system: Phenylalanine ammonia lyase (PAL); test: PAL activity measurements in treated rice plants; type: in vivo; conditions: 20 mM DHA foliar spray; for PAL-activity in galls in comparison with uninfected root tips: M. graminicola infected
Description: PAL activity measurements—14 days old rice plants were foliar sprayed with 20 mM DHA and 1 day later, plants were inoculated with Meloidogyne graminicola nematodes (Mg+) or mock inoculated (Mg−). Three or seven days after inoculation, samples were collected. Both galls and systemic tissue (shoots) were collected. Samples were flash-frozen and ground under liquid nitrogen. Per sample, 100 mg of material was used to execute PAL-activity measurement according to Camacho-Cristobal et al. (2002). PAL was assayed by measuring the formation of trans-cinnamic acid at 290 nm. Samples were dissolved in 800 μl of 50 mM sodium phosphate as assay buffer containing 2% (w/v) poly-vinylpolypyrrolidone (PVPP), 2 mM EDTA, 18 mM-mercaptoetanol and 0.1% (v/v) Triton X-100. The homogenate was centrifuged at 8000 rpm, 4° C. for 10 min. In different 2 ml tubes, 135 μl of reaction buffer, 50 μl of 5 mM of L-phenlyalanine, and 20 μl of supernatant were mixed and absorbance at 290 nm was measured before incubation at 40° C. for 30 minutes. Then, 10 μl of hydrochloric acid was added and measurement was again done at the same wavelength. The assay was done with 4 biological replicates, which each consisted of pooled material of 4 plants.

[4] = system: rice plants; test: Root growth in rice after foliar spray, uninfected conditions; type: in vivo, Oryza sativa cv. Nipponbare; conditions: 14-days old rice, foliar spray 20 mM, 12 DAS, vs water control
Description: (§4) Rice—Seeds of wild-type rice Oryza sativa cv. Nipponbare were obtained from USDA (GSOR-100). Seeds were germinated on wet filter paper for 4-5 days at 30° C. and seedlings were then transferred to SAP-substrate (Sand mixed with Absorbent Polymer AquaPerla®, DCM, Belgium) and further grown at 28° C., under a light regime of (day/night) 12/12. Hoagland solution was given as a source of nutrients 3 times a week.
as §2, §3

[5] = system: Heterodera schachtii; test: Sugar beet tolerance to beet cyst nematode infection after foliar spray; type: in vivo; conditions: 250 H. schachtii per plant
Description: (§5) Sugar beet—seeds of cv. Amarok were germinated on moist tissue for 4-5 days at 25° C. For longer experiments seedlings were transplanted to polyvinyl-chloride (PVC) tubes containing fine soil particles. All experiments were conducted in a plant growth room at 25° C., with a 16/8 h day/night regime. The plants were fertilized by supplying Hoagland solution as a source of nutrients 3 times a week.
BNC cysts were obtained from Iran and were maintained on sugar beet (cv. Amarok) plants. Cysts were obtained from stock cultures, by washing the infected soil and letting the cysts to float in water. Full cysts with eggs were hand-picked and allowed to dry before setting up for hatching. For second-stage juveniles (J2) to hatch, cysts were placed in 3 mM of […] and transferred to an incubator/shaker at a temperature of 25.5° C. at 70 rpm for 4 days (Kammerhofer et al., 2015). J2 were re-suspended in water and counted under a stereomicroscope. Around 250-300 J2 nematodes were inoculated per plant. One day before and after inoculation, plants were not supplied with any nutrients or water. To investigate the plant tolerance to BCN infection root length, shoot height, fresh root weight as well as the number of cysts were measured at different time points after spraying and/or inoculation. For all experiments, 8 individual plants were used per treatment.
as §2, §3

[6] = system: rice seedlings; test: Evaluation of seedling growth after drenching rice seedlings; type: in vivo, Oryza sativa cv. Nipponbare
Description: as §4, §2
3-days old rice seedlings were drenched with 1 mL of AA (20 mM), AO (20 U/mL), DHA (20 mM) or water (H2O) as a negative control. Rice root length and dry root weight as well as the number of embryonic crown roots (ECR) were measured 5 days after drenching.

[7] = system: sugar beet plants; test: Root and shoot growth in uninfected sugar beet plants after foliar spray; type: in vivo, Beta vulgaris cv. Amarok
Description: as §5, §2, §3

[8] = Ascorbate measurements in shoots and roots of foliar sprayed rice; type: in vivo, Oryza sativa cv. Nipponbare; conditions: 24 h after foliar application; vs control plants
Description: as §3
[…] In each assay, 100 mg of crushed material was used per sample, and at least 4 biological replicates were analyzed per treatment. Reduced and oxidized AA were measured according to the method described in Ueda et al., 2013. Absorbance was monitored using a microplate reader (TECAN—Infinite200pro).

[9] = system: root-knot nematode Meloidogyne graminicola; test: Root growth in rice after foliar spray, nematode-infected conditions (tolerance); type: in vivo; conditions: 14-days old rice, foliar spray 20 mM, 250 nematodes per plant
Description: as §4, §1, §2, §3

[10] = three-weeks old sugar beet, foliar spray (AA 20 mM, AO 20 U/mL, DHA 20 mM), 4 DAS (3 dai)
[11] = 3-days old rice seedlings drenched with 1 mL (AA 20 mM, DHA 20 mM, AO 20 U/ml), 5 days after drenching, vs water control
[12] = two-week old sugar beet, foliar spray, seven days later, effect not statistically significant

O=C1O[C@H]([C@@H](O)CO)C(=O)C1=O [DHA, (5R)-5-[(1S)-1,2-dihydroxyethyl]furan-2,3,4(5H)-trione]
antiviral effect [1]: antiviral effect | reduction in number of galls ([2]; Osjarl (JA signalling) mutants sprayed with DHA 20 mM): 25-30% | reduction in number of galls ([2]; wild-type Nipponbare sprayed with DHA 20 mM vs unsprayed wild-type): 50-70% | PAL-activity in systemic shoot tissues of infected versus uninfected plants ([3]; 3 dpi): strongly enhanced | PAL-activity in systemic shoot tissues of infected versus uninfected plants ([3]; 7 dpi): strongly enhanced | PAL-activity in galls in comparison with uninfected root tips ([3]; 3 dpi): strongly enhanced | PAL-activity in galls in comparison with uninfected root tips ([3]; 7 dpi): strongly enhanced | root length [4]: significantly longer roots | root system development ([5]; foliar spray DHA 20 mM, 43 DAS, vs control): better developed root system | number of cysts ([5]; foliar spray DHA 20 mM, 43 DAS, vs untreated plants): significantly lower | fresh root weight ([5]; foliar spray, 43 DAS (42 days after inoculation), vs control): significantly more fresh root weight | root length [5, 10]: significantly increased | root weight [5, 10]: significantly increased | shoot weight [5, 10]: significantly increased | shoot height ([5]; three-weeks old sugar beet, foliar spray (AA 20 mM, AO 20 U/mL, DHA 20 mM), 4 DAS (3 dai), DHA effect not statistically significant): positively influenced | dry root weight [6, 11]: significantly higher | number of embryonic crown roots (ECR) [6, 11]: significantly higher | root length [6, 11]: significantly higher | general appearance of seedlings ([6]; rice seedlings drenched with DHA 20 mM): looked more vigorous | general appearance of plants ([7]; sugar beet, foliar spray DHA 20 mM, throughout the experiment): looked more vigorous | root length ([7]; two-week old sugar beet, foliar spray (DHA 20 mM, AO 20 U/mL), seven days later, vs water control): significantly longer roots | fresh root weight [7, 12]: positively affected | shoot length [7, 12]: positively affected | amount of DHA in shoots [8]: significantly higher amounts of DHA | total ascorbate level in roots [8]: increased | root length ([9]; 8 DAS (7 days after inoculation)): most significant improved root length | root length ([9]; 12 DAS (11 days after inoculation)): most significant improved root length
